Entries after “also recorded” stand apart in the source; their conditions may differ. Read-outs that look alike come from different tables or passages of the source.
Legend:
[1] = cited from earlier work
carnosinase = conditions: taken into the body; with the aid of carnosinase; cited from earlier work
[2] = cited from earlier work; remark: listed apart in the source
[3] = Acute toxicity of L-carnosine (peritoneal and oral); format: in vivo; conditions: mouse, in vivo; for LD50 at 72 h: dd strain male mice
Description: (§1) […] LD50 was computed by the Van der Waerden method based on the number of dead mice after 72 hours. In the examination, L-carnosine was diluted with a physiological saline so that its administration concentration would be 0.1-0.3 ml/10 g.

dd strain male mice = assay: as above; format: in vivo
Description: as §1

[4] = peritoneal 15,000 mg/kg, after about 30 minutes

For `NCCC(=O)N[C@@H](Cc1cnc[nH]1)C(=O)O` [L-carnosine, β-alanyl-L-histidine], the solubility in water [1] is given as “easily soluble in water; also recorded: readily soluble in water”, the metabolism (carnosinase) is given as “decomposed, with the aid of carnosinase, into L-histidine and β-alanine” and the “pH value of its aqueous solution” value [2] is given as 8.0-8.5. It also gave a mortality at 12 h ([3]; 15000 mg/kg, oral 15,000 mg/kg, after 12 hours, read-out: mice died) of 10%, a mortality at 2 h ([3]; ip, 15000 mg/kg, peritoneal 15,000 mg/kg, after 2 hours, read-out: experimental animals died) of 80% and an LD50 at 72 h ([3]; ip, peritoneal, Van der Waerden method, 72 hours (75-hour value elsewhere in the source), read-out: LD50 at 95% level of confidence) of 9090 mg/kg. The LD50 at 72 h ([3]; oral, (the minimum lethal dose), read-out: LD50) was over 14900 mg/kg, the “toxicity (overall)” value (dd strain male mice; acute toxicity test, dd strain male mice) was “quite low toxicity” and the “appreciable effect (symptoms)” value (dd strain male mice; oral 15,000 mg/kg) was “did not show any appreciable effect”. The “symptoms when further advanced” value (dd strain male mice; peritoneal 15,000 mg/kg) was “the animals repeated horizontal rollings and upon contact stimulation the reflex became hyperreactive with an attendant spasm, leading to ultimate death”, the “symptoms: raising of the tails and clonospasm” value (dd strain male mice; peritoneal 15,000 mg/kg, about 30 minutes after administration) was “seen in as many as half of the experimental animals” and the experimental animals died (dd strain male mice; peritoneal 15,000 mg/kg, after 1 hour and 30 minutes) was “Half”. For the same compound, the experimental animals died (dd strain male mice; peritoneal 15,000 mg/kg, after 5 hours) was “all of the experimental animals died”, the “symptoms: frontal or escape reflexes” value (dd strain male mice; [4]) was “no frontal or escape reflexes” and the “symptoms: spontaneous movement and respiration” value (dd strain male mice; [4]) was “a reduction in spontaneous movement accompanied by an irregular or decreased number of respirations”. For the same compound, the LD100 (dd strain male mice; peritoneal, mice) was 15,000 mg/kg.
